Data set [1] in a line: Occupational exposure limit (OEL) and ASHRAE toxicity class of mixed refrigerant, calculated from component OELs and mole fractions. The conditions noted are these: ANSI/ASHRAE Standard 34-2019; for Occupational exposure limit: center composition of mixed refrigerant. The text has this:
In the present specification, a “toxicity class A” refrigerant means that the occupational exposure limit (OEL) of the mixed refrigerant is 400 ppm or more in accordance with the US ANSI/ASHRAE Standard 34-2019. A “toxicity class B” refrigerant means that the occupational exposure limit of the mixed refrigerant is less than 400 ppm in accordance with the US ANSI/ASHRAE Standard 34-2019.
In the present disclosure, the occupational exposure limit (OEL) of a mixed refrigerant refers to a value evaluated based on the center composition, unless otherwise specified. However, calculation is performed with the OEL of each refrigerant as follows. • R32: 1000 ppm • R152a: 1000 ppm • HFO-1132(E): 350 ppm
The OEL of the center composition of a mixed refrigerant is calculated in accordance with the following formula.
wherein an represents the OEL of each refrigerant compound, and mfn represents the mole fraction of each refrigerant compound.
The occupational exposure limit (OEL value) of each mixed refrigerant was investigated.

The conditions of data set [2]: component values used for the calculation; cited from earlier work.

The values below come from patent US20240287368A1, “COMPOSITION CONTAINING REFRIGERANT, USE OF SAME, REFRIGERATOR HAVING SAME, AND METHOD FOR OPERATING SAID REFRIGERATOR” (DAIKIN INDUSTRIES, LTD., priority 2021, published 2024).

Take `FCF` [0-3, difluoromethane]: in data set [1], the ASHRAE toxicity class result is given as “A (the occupational exposure limit (OEL) of the mixed refrigerant is 400 ppm or more)” and the Occupational exposure limit is on record as 1000 ppm. Further, in data set [2], the “OEL of each refrigerant” value was 1000 ppm.

With `F/C=C/F` [0-1, trans-1,2-difluoroethylene], in data set [1], the ASHRAE toxicity class result was “B (the occupational exposure limit of the mixed refrigerant is less than 400 ppm)” and the Occupational exposure limit is given as 350 ppm. Also, in data set [2], the “OEL of each refrigerant” value is 350 ppm.

Take `CC(F)F` [0-2, 1,1-difluoroethane]: in data set [1], the ASHRAE toxicity class entry is reported as “A (the occupational exposure limit (OEL) of the mixed refrigerant is 400 ppm or more)” and the Occupational exposure limit was 1000 ppm.
